# Target: human activated kallikrein enzyme (Homo sapiens, UniProt P03952)
# Assay: Inhibition of human activated plasma kallikrein, fluorogenic PFR-AMC substrate, 500 pM enzyme format
# Format: biochemical
# Conditions: 500 pM activated kallikrein; 300 μM PFR-AMC; 30 min preincubation; 10 min room temperature; pH 7.5; read-out: Primary Dose Response Assay: Average EC50
# Method: Compounds were evaluated for inhibition of the human activated kallikrein enzyme in two formats of an assay employing a fluorogenic peptide substrate. In one assay format, the concentrations of reagents were as follows: 20 mM Tris pH 7.5, 1 mM EDTA, 150 mM sodium chloride, 0.1% PEG-400, 0.1% Triton X-100, 500 pM activated kallikrein enzyme, 300 μM Pro-Phe-Arg-7-amido-4-methylcoumarin (PFR-AMC) substrate. Prior to reaction initiation with substrate, enzyme and inhibitors were preincubated for 30 min at room temperature. After initiation with substrate, reactions were incubated for 10 min at room temperature and fluorescence emission at 460 nm from 380 nm excitation measured with a microplate reader. In another assay format, the concentrations of reagents were as follows: 20 mM Tris pH 7.5, 1 mM EDTA, 150 mM sodium chloride, 0.1% PEG-400, 0.1% Triton X-100, 5 pM activated kallikrein enzyme, 300 uM PFR-AMC substrate. Prior to reaction initiation with substrate, enzyme and inhibitors were preincubated for 30 min at room temperature. After initiation with substrate, reactions were incubated for 18 hr at room temperature and fluorescence emission at 460 nm from 380 nm excitation measured with a microplate reader.
# Table 35 provides the results of the assay in the format with 500 pM activated kallikrein assay.
# human activated kallikrein enzyme, sequence (P03952 391-638 limits assumed): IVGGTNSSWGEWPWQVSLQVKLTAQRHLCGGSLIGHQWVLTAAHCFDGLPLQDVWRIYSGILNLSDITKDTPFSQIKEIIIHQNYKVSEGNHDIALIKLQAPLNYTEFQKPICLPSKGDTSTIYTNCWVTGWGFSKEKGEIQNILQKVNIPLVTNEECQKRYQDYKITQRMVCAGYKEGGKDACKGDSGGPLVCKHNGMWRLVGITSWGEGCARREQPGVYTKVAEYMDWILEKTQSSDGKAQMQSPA
# human activated kallikrein enzyme, sequence (P03952 20-390 partner limits assumed): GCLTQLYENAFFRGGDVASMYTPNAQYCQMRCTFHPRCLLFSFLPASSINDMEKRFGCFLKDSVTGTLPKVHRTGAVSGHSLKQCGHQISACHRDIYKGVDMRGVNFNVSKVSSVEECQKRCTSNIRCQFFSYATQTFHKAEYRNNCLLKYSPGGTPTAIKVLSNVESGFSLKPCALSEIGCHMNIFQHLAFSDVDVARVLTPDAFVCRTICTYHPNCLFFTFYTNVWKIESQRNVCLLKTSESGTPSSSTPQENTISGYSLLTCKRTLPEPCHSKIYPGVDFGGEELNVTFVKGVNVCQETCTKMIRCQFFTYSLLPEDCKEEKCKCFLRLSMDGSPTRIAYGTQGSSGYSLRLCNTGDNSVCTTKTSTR
row,EC50,SMILES
1,1 to 10 nM,"CCOC(=O)Nc1nccc2c(C)c(CNC(=O)c3cnn(Cc4cn5cc(C)ccc5n4)c3)c(C)cc12 [Example 9, ethyl (5,7-dimethyl-6-((1-((6-methylimidazo[1,2-a]pyridin-2-yl)methyl)-1H-pyrazole-4-carboxamido)methyl)isoquinolin-1-yl)carbamate]"
2,< 1 nM,"Cc1ccc2nc(Cn3cc(C(=O)NCc4c(C)cc5c(N)nccc5c4C)cn3)cn2c1 [Example 10, N-((1-amino-5,7-dimethylisoquinolin-6-yl)methyl)-1-((6-methylimidazo[1,2-a]pyridin-2-yl)methyl)-1H-pyrazole-4-carboxamide]"
3,< 1 nM,"Cc1ccc2nc(C(C)n3cc(C(=O)NCc4c(C)cc5c(N)nccc5c4C)cn3)cn2c1 (stereo not drawn) [Example 13, N-((1-amino-5,7-dimethylisoquinolin-6-yl)methyl)-1-(1-(6-methylimidazo[1,2-a]pyridin-2-yl)ethyl)-1H-pyrazole-4-carboxamide]"
4,100 to 1000 nM,"COC(=O)C(c1cn2cc(C)ccc2n1)n1cc(C(=O)NCc2c(C)cc3c(N)nccc3c2C)cn1 (stereo not drawn) [Example 14, methyl 2-(4-(((1-amino-5,7-dimethylisoquinolin-6-yl)methyl)carbamoyl)-1H-pyrazol-1-yl)-2-(6-methylimidazo[1,2-a]pyridin-2-yl)acetate]"
5,< 1 nM,"Cc1ccc2nc(Cn3cc(C(=O)NCc4c(C)cc5c(N)nccc5c4C)cn3)nn2c1 [Example 15, N-((1-amino-5,7-dimethylisoquinolin-6-yl)methyl)-1-((6-methyl-[1,2,4]triazolo[1,5-a]pyridin-2-yl)methyl)-1H-pyrazole-4-carboxamide]"
6,1 to 10 nM,"Cc1ncc2ccc(Cn3cc(C(=O)NCc4c(C)cc5c(N)nccc5c4C)cn3)cc2n1 [Example 16, N-((1-amino-5,7-dimethylisoquinolin-6-yl)methyl)-1-((2-methylquinazolin-7-yl)methyl)-1H-pyrazole-4-carboxamide]"
7,< 1 nM,"Cc1cc2c(N)nccc2c(C)c1CNC(=O)c1cnn(Cc2ccc(Oc3cc(Cl)cn(C)c3=O)cc2)c1 [Example 17, N-((1-amino-5,7-dimethylisoquinolin-6-yl)methyl)-1-(4-((5-chloro-1-methyl-2-oxo-1,2-dihydropyridin-3-yl)oxy)benzyl)-1H-pyrazole-4-carboxamide]"
8,< 1 nM,"Cc1cc2c(N)nccc2c(C)c1CNC(=O)c1cnn(Cc2ccc(Oc3cccn(C)c3=O)cc2)c1 [Example 18, N-((1-amino-5,7-dimethylisoquinolin-6-yl)methyl)-1-(4-((1-methyl-2-oxo-1,2-dihydropyridin-3-yl)oxy)benzyl)-1H-pyrazole-4-carboxamide]"
9,< 1 nM,"CC(=O)NC1(c2ccc(Cn3cc(C(=O)NCc4c(C)cc5c(N)nccc5c4C)cn3)cc2)CC1 [Example 19, 1-(4-(1-acetamidocyclopropyl)benzyl)-N-((1-amino-5,7-dimethylisoquinolin-6-yl)methyl)-1H-pyrazole-4-carboxamide]"
10,< 1 nM,"Cc1cc(Cn2cc(C(=O)NCc3c(C)cc4c(N)nccc4c3C)cn2)cc(C)c1CC(=O)N(C)C [Example 20, N-((1-amino-5,7-dimethylisoquinolin-6-yl)methyl)-1-(4-(2-(dimethylamino)-2-oxoethyl)-3,5-dimethylbenzyl)-1H-pyrazole-4-carboxamide]"
11,1 to 10 nM,"Cc1cc2c(N)nccc2c(C)c1CNC(=O)c1cnn(Cc2ccc(N(C)C(=O)N3CCCC3)cc2)c1 [Example 21, N-((1-amino-5,7-dimethylisoquinolin-6-yl)methyl)-1-(4-(N-methylpyrrolidine-1-carboxamido)benzyl)-1H-pyrazole-4-carboxamide]"
12,1 to 10 nM,"Cc1cc2c(N)nccc2c(C)c1CNC(=O)c1cnn(Cc2ccc(N(C)C(=O)N(C)C)cc2)c1 [Example 22, N-((1-amino-5,7-dimethylisoquinolin-6-yl)methyl)-1-(4-(1,3,3-trimethylureido)benzyl)-1H-pyrazole-4-carboxamide]"
13,10 to 100 nM,"Cc1cc2c(N)nccc2c(C)c1CNC(=O)c1cnn(Cc2ccc(C(F)(F)C(=O)N(C)C)cc2)c1 [Example 23, N-((1-amino-5,7-dimethylisoquinolin-6-yl)methyl)-1-(4-(2-(dimethylamino)-1,1-difluoro-2-oxoethyl)benzyl)-1H-pyrazole-4-carboxamide]"
14,< 1 nM,"Cc1cnc2ccc(Cn3cc(C(=O)NCc4c(C)cc5c(N)nccc5c4C)cn3)cc2n1 [Example 24, N-((1-amino-5,7-dimethylisoquinolin-6-yl)methyl)-1-((3-methylquinoxalin-6-yl)methyl)-1H-pyrazole-4-carboxamide]"
15,1 to 10 nM,"CCOC(=O)N(C)c1ccc(Cn2cc(C(=O)NCc3c(C)cc4c(N)nccc4c3C)cn2)cc1 [Example 25, ethyl (4-((4-(((1-amino-5,7-dimethylisoquinolin-6-yl)methyl)carbamoyl)-1H-pyrazol-1-yl)methyl)phenyl)(methyl)carbamate]"
16,< 1 nM,"Cc1cc(Cn2cc(C(=O)NCc3c(C)cc4c(N)nccc4c3C)cn2)ccc1CC(=O)N(C)C [Example 26, N-((1-amino-5,7-dimethylisoquinolin-6-yl)methyl)-1-(4-(2-(dimethylamino)-2-oxoethyl)-3-methylbenzyl)-1H-pyrazole-4-carboxamide]"
17,< 1 nM,"Cc1ccc2ccc(Cn3cc(C(=O)NCc4c(C)cc5c(N)nccc5c4C)cn3)cc2n1 [Example 27, N-((1-amino-5,7-dimethylisoquinolin-6-yl)methyl)-1-((2-methylquinolin-7-yl)methyl)-1H-pyrazole-4-carboxamide]"
18,< 1 nM,"Cc1cc2c(N)nccc2c(C)c1CNC(=O)c1cnn(Cc2ccc3ncc(C4CC4)cc3c2)c1 [Example 28, N-((1-amino-5,7-dimethylisoquinolin-6-yl)methyl)-1-((3-cyclopropylquinolin-6-yl)methyl)-1H-pyrazole-4-carboxamide]"
19,1 to 10 nM,"Cc1cc2c(N)nccc2c(C)c1CNC(=O)c1cnn(Cc2ccc(C3CC3)cc2)c1 [Example 29, N-((1-amino-5,7-dimethylisoquinolin-6-yl)methyl)-1-(4-cyclopropylbenzyl)-1H-pyrazole-4-carboxamide]"
20,< 1 nM,"Cc1cc2c(N)nccc2c(C)c1CNC(=O)c1cnn(Cc2ccc(Cc3cccn(C)c3=O)cc2)c1 [Example 30, N-((1-amino-5,7-dimethylisoquinolin-6-yl)methyl)-1-(4-((1-methyl-2-oxo-1,2-dihydropyridin-3-yl)methyl)benzyl)-1H-pyrazole-4-carboxamide]"
21,1 to 10 nM,"Cc1cc2c(N)nccc2c(C)c1CNC(=O)c1cnn(Cc2cccc(C3CC3)c2)c1 [Example 31, N-((1-amino-5,7-dimethylisoquinolin-6-yl)methyl)-1-(3-cyclopropylbenzyl)-1H-pyrazole-4-carboxamide]"
22,100 to 1000 nM,"Cc1cc2c(N)nccc2c(C)c1CNC(=O)c1cnn(Cc2ccccc2C#N)c1 [Example 32, N-((1-amino-5,7-dimethylisoquinolin-6-yl)methyl)-1-(2-cyanobenzyl)-1H-pyrazole-4-carboxamide]"
23,100 to 1000 nM,"COc1ccccc1Cn1cc(C(=O)NCc2c(C)cc3c(N)nccc3c2C)cn1 [Example 33, N-((1-amino-5,7-dimethylisoquinolin-6-yl)methyl)-1-(2-methoxybenzyl)-1H-pyrazole-4-carboxamide]"
24,100 to 1000 nM,"Cc1cc2c(N)nccc2c(C)c1CNC(=O)c1cnn([C@@H](C)c2ccccc2)c1 [Example 34, (S)-N-((1-amino-5,7-dimethylisoquinolin-6-yl)methyl)-1-(1-phenylethyl)-1H-pyrazole-4-carboxamide]"
25,10 to 100 nM,"Cc1ccc(Cn2cc(C(=O)NCc3c(C)cc4c(N)nccc4c3C)cn2)cc1 [Example 35, N-((1-amino-5,7-dimethylisoquinolin-6-yl)methyl)-1-(4-methylbenzyl)-1H-pyrazole-4-carboxamide]"
26,1 to 10 nM,"Cc1ccc(Cn2cc(C(=O)NCc3c(C)cc4c(N)nccc4c3C)cn2)cc1C(F)(F)F [Example 36, N-((1-amino-5,7-dimethylisoquinolin-6-yl)methyl)-1-(4-methyl-3-(trifluoromethyl)benzyl)-1H-pyrazole-4-carboxamide]"
27,10 to 100 nM,"Cc1cc2c(N)nccc2c(C)c1CNC(=O)c1cnn(Cc2cc(Cl)cc(Cl)c2)c1 [Example 37, N-((1-amino-5,7-dimethylisoquinolin-6-yl)methyl)-1-(3,5-dichlorobenzyl)-1H-pyrazole-4-carboxamide]"
28,> 1000 nM,"Cc1cc2c(N)nccc2c(C)c1CNC(=O)c1cnn(Cc2ccccc2F)c1 [Example 38, N-((1-amino-5,7-dimethylisoquinolin-6-yl)methyl)-1-(2-fluorobenzyl)-1H-pyrazole-4-carboxamide]"
29,100 to 1000 nM,"Cc1cc2c(N)nccc2c(C)c1CNC(=O)c1cnn(Cc2ccc(F)cc2)c1 [Example 39, N-((1-amino-5,7-dimethylisoquinolin-6-yl)methyl)-1-(4-fluorobenzyl)-1H-pyrazole-4-carboxamide]"
30,100 to 1000 nM,"Cc1ccccc1Cn1cc(C(=O)NCc2c(C)cc3c(N)nccc3c2C)cn1 [Example 40, N-((1-amino-5,7-dimethylisoquinolin-6-yl)methyl)-1-(2-methylbenzyl)-1H-pyrazole-4-carboxamide]"

# Reference: patent US20260374754A1, “N-((ISOQUINOLIN-6-YL)METHYL)-1H-PYRAZOLE-4-CARBOXAMIDE DERIVATIVES AS PLASMA KALLIKREIN INHIBITORS FOR THE TREATMENT OF HEREDITARY ANGIODEMA” (Takeda Pharmaceutical Company Limited, priority 2022, published 2026)
